Consider six molecules from US12139520B2 (priority 2020, dated 2024).

Bridge positions count the residues as written; N and C are the ends. Square brackets hold non-standard residues; d marks the D form. Peptide text beside a SMILES is read from it. Hyp = O=C(O)[C@@H]1C[C@@H](O)CN1; Cit = NC(=O)NCCC[C@H](N)C(=O)O

The target of one data set is T1, hAMY3 receptor (Homo sapiens, UniProt O60896+P30988).
T1 sequence (P30988 25-474): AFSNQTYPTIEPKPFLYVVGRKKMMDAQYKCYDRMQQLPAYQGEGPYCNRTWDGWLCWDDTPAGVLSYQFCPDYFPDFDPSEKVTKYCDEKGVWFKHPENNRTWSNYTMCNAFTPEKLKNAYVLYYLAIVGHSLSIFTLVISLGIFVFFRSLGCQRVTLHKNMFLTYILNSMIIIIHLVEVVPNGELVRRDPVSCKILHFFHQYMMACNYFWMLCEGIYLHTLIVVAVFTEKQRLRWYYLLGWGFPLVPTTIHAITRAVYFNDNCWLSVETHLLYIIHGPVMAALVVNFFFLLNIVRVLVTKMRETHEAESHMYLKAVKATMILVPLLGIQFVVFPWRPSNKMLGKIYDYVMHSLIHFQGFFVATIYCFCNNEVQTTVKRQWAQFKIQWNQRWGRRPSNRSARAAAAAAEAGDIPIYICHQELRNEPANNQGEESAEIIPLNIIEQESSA
T1 sequence (O60896 24-148 partner): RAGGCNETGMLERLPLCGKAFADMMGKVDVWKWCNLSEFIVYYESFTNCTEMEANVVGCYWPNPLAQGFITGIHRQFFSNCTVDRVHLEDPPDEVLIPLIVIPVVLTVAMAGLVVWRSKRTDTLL
The data set is described as follows: cAMP assay for in vitro receptor activation, hAMY3-R. The data set is classed as cell-based. Conditions: cAMP assay, hAMY3 receptor; read-out: hAMY3R EC50. The procedure, abridged: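 Thawed cells from a sub-cloned monoclonal hAMY3-overexpressing line are plated in DPBS containing 0.05% casein and 0.5 mM IBMX. Test compounds are added immediately at graded doses for 30 min at room temperature. Reagents for cAMP detection are then added, and TR-FRET is recorded after one hour.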
(In general: Cyclic AMP is a second messenger, typically raised through Gs and lowered through Gi signalling.)

A further data set deals with hAM1 receptor (Homo sapiens, UniProt O60895+Q16602). The data set is described as follows: cAMP assay for in vitro receptor activation, hAM1-R. The format is cell-based. The note with it: cAMP assay, hAM1 receptor; read-out: hAM1R EC50. In short, it runs like this: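 Receptor activation, read as cAMP, was assessed in thawed cells of a monoclonal hAM1-overexpressing stable line, plated at 8000 cells/well in DPBS supplemented with 0.05% casein and 0.5 mM IBMX.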

The nature of data set [1]: Physical stability of peptide analogues (Thioflavin T fibrillation). The format is physicochemical. Conditions: maximum ThT signal normalized between hAMY maximum and buffer background; 40° C., shaking, four days; pH 7 per table title. The procedure, abridged:
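Peptides in 50 mM sodium acetate pH 4 or 50 mM sodium phosphate pH 7 were preincubated 1 h, mixed with 4 μM ThT, held at 40° C with 700 rpm shaking before each read. Fluorescence (ex 450/em 480 nm) every 10 min for four days; LOESS-smoothed maximum signal normalized in percent between hAMY and buffer.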

hAM1 receptor, sequence (Q16602 23-461): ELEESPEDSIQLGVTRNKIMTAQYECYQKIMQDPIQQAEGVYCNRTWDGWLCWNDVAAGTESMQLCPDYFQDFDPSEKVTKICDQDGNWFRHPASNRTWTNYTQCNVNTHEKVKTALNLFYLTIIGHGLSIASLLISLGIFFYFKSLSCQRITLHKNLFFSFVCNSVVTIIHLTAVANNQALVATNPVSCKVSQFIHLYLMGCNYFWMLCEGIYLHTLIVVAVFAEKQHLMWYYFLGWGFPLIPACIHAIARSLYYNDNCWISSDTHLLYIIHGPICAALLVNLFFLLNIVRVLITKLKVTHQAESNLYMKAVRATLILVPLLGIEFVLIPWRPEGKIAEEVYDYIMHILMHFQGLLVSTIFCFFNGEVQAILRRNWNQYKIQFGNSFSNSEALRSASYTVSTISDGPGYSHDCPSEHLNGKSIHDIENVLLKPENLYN
hAM1 receptor, sequence (O60895 43-175 partner): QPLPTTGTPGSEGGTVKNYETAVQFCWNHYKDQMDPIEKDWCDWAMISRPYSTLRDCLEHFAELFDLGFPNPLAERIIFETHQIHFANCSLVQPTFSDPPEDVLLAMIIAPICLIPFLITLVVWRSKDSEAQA

One may read the EC50 as the concentration giving half of the maximal effect. Regarding `CC[C@H](C)[C@H](NC(=O)[C@H](CCC(N)=O)NC(=O)[C@H](Cc1c[nH]cn1)NC(=O)[C@H](C)NC(=O)[C@H](CC(C)C)NC(=O)[C@H](CCCNC(N)=O)NC(=O)[C@H](CCC(N)=O)NC(=O)[C@@H](NC(=O)[C@@H](NC(=O)[C@@H]1CSSC[C@H](NC(=O)CN)C(=O)N[C@@H](CCCNC(=N)N)C(=O)N[C@@H]([C@@H](C)O)C(=O)NCC(=O)N[C@@H]([C@@H](C)O)C(=O)N1)[C@@H](C)O)C(C)C)C(=O)N[C@@H](Cc1ccc(O)cc1)C(=O)N[C@@H](CCC(N)=O)C(=O)N[C@@H](Cc1ccccc1)C(=O)N[C@H](C(=O)N[C@@H](CC(=O)O)C(=O)N[C@@H](CCCCN)C(=O)N[C@@H](CC(=O)O)C(=O)N[C@@H](CCCCN)C(=O)N[C@@H](CC(=O)O)C(=O)N[C@@H](CC(N)=O)C(=O)N[C@H](C(=O)N[C@@H](C)C(=O)N1CCC[C@H]1C(=O)N[C@@H](CCCNC(=N)N)C(=O)N[C@H](C(=O)N[C@@H](CC(N)=O)C(=O)N[C@H](C(=O)NCC(=O)N1CCC[C@H]1C(=O)N[C@@H](CC(N)=O)C(=O)NCC(=O)N[C@@H](Cc1ccc(O)cc1)C(N)=O)C(C)C)[C@@H](C)O)C(C)C)[C@@H](C)O` [compound 269] (H-GCRTGTCTVQ[Cit]LAHQIYQFTDKDKDNVAPRTNVGPNGY-NH2; disulfide 2-7; N-terminus assumed), the results for the half-maximal effective concentration (EC50) on hAMY3 receptor and on hAM1 receptor were 0.005 nM and greater than 5 µM, respectively. The “Max ThT signal (%)” value in data set [1] came to 34.500%.

Consider `CC[C@H](C)[C@H](NC(=O)[C@H](CCC(N)=O)NC(=O)[C@H](Cc1c[nH]cn1)NC(=O)[C@H](C)NC(=O)[C@H](CC(C)C)NC(=O)[C@H](CCCNC(N)=O)NC(=O)[C@H](CCC(N)=O)NC(=O)[C@@H](NC(=O)[C@@H](NC(=O)[C@@H]1CSSC[C@H](NC(=O)CN)C(=O)N[C@@H](CCCNC(=N)N)C(=O)N[C@@H](Cc2ccccc2)C(=O)NCC(=O)N[C@@H]([C@@H](C)O)C(=O)N1)[C@@H](C)O)C(C)C)C(=O)N[C@@H](Cc1ccc(O)cc1)C(=O)N[C@@H](CCC(N)=O)C(=O)N[C@@H](Cc1ccccc1)C(=O)N[C@H](C(=O)N[C@@H](CC(=O)O)C(=O)N[C@@H](CCCCN)C(=O)N[C@@H](CC(=O)O)C(=O)N[C@@H](CCCCN)C(=O)N[C@@H](CC(=O)O)C(=O)N[C@@H](CC(N)=O)C(=O)N[C@H](C(=O)N[C@@H](C)C(=O)N1CCC[C@H]1C(=O)N[C@@H](CCCNC(=N)N)C(=O)N[C@H](C(=O)N[C@@H](CC(N)=O)C(=O)N[C@H](C(=O)N[C@@H](CO)C(=O)N1CCC[C@H]1C(=O)N[C@@H](CCC(N)=O)C(=O)NCC(=O)N1C[C@H](O)C[C@H]1C(N)=O)C(C)C)[C@@H](C)O)C(C)C)[C@@H](C)O` [compound 283] (H-GCRFGTCTVQ[Cit]LAHQIYQFTDKDKDNVAPRTNVSPQG[Hyp]-NH2; disulfide 2-7; N-terminus assumed), for which the concentration giving a half-maximal response (EC50) on hAMY3 receptor was 0.035 nM; at hAM1 receptor, greater than 5 µM. In addition, the “Max ThT signal (%)” value in data set [1] is recorded as 17.100%.

For the molecule `CC(C)C[C@H](NC(=O)[C@H](Cc1c[nH]c2ccccc12)NC(=O)[C@H](CCC(N)=O)NC(=O)[C@@H](NC(=O)[C@@H](NC(=O)[C@@H]1CSSC[C@H](NC(=O)CN)C(=O)N[C@@H](CCCNC(=N)N)C(=O)N[C@@H](Cc2ccccc2)C(=O)NCC(=O)N[C@@H]([C@@H](C)O)C(=O)N1)[C@@H](C)O)C(C)C)C(=O)N[C@@H](C)C(=O)N[C@@H](Cc1c[nH]cn1)C(=O)N[C@@H](Cc1ccccc1)C(=O)N[C@@H](CC(C)C)C(=O)N[C@@H](Cc1ccc(O)cc1)C(=O)N[C@@H](CCC(N)=O)C(=O)N[C@@H](Cc1ccccc1)C(=O)N[C@H](C(=O)N[C@@H](CC(=O)O)C(=O)N[C@@H](CCCCN)C(=O)N[C@@H](CC(=O)O)C(=O)N[C@@H](CCCCN)C(=O)N[C@@H](CC(=O)O)C(=O)N[C@@H](CC(N)=O)C(=O)N[C@H](C(=O)N[C@@H](C)C(=O)N1CCC[C@H]1C(=O)N[C@@H](CCCNC(=N)N)C(=O)N[C@H](C(=O)N[C@@H](CC(N)=O)C(=O)N[C@H](C(=O)NCC(=O)N1CCC[C@H]1C(=O)N[C@@H](CCC(N)=O)C(=O)NCC(=O)N[C@@H](Cc1ccc(O)cc1)C(N)=O)C(C)C)[C@@H](C)O)C(C)C)[C@@H](C)O` [compound 326] (H-GCRFGTCTVQWLAHFLYQFTDKDKDNVAPRTNVGPQGY-NH2; disulfide 2-7; N-terminus assumed), the results for the 50% effective concentration (EC50) on hAMY3 receptor and on hAM1 receptor were 0.053 nM and greater than 5 µM, respectively. Moreover, the “Max ThT signal (%)” value in data set [1] turned out to be 2.350%.

Turning to `CC[C@H](C)[C@H](NC(=O)[C@H](C)NC(=O)[C@H](Cc1c[nH]cn1)NC(=O)[C@H](C)NC(=O)[C@H](CC(C)C)NC(=O)[C@H](CCCNC(=N)N)NC(=O)[C@H](CCC(N)=O)NC(=O)[C@@H](NC(=O)[C@@H](NC(=O)[C@@H]1CSSC[C@H](NC(=O)[C@@H](N)CCCCN)C(=O)N[C@@H](CC(N)=O)C(=O)N[C@@H]([C@@H](C)O)C(=O)N[C@@H](C)C(=O)N[C@@H]([C@@H](C)O)C(=O)N1)[C@@H](C)O)C(C)C)C(=O)N[C@@H](Cc1ccc(O)cc1)C(=O)N[C@@H](CCC(N)=O)C(=O)N[C@@H](Cc1ccccc1)C(=O)N[C@H](C(=O)N[C@@H](CC(=O)O)C(=O)N[C@@H](CCCCN)C(=O)N[C@@H](CC(=O)O)C(=O)N[C@@H](CCCCN)C(=O)N[C@@H](CC(=O)O)C(=O)N[C@@H](CC(N)=O)C(=O)N[C@H](C(=O)N[C@@H](C)C(=O)N1CCC[C@H]1C(=O)N1CCC[C@H]1C(=O)N[C@H](C(=O)N[C@@H](CC(N)=O)C(=O)N[C@H](C(=O)NCC(=O)N[C@@H](CO)C(=O)N[C@@H](CC(N)=O)C(=O)NCC(=O)N1C[C@H](O)C[C@H]1C(N)=O)C(C)C)[C@@H](C)O)C(C)C)[C@@H](C)O` [compound 13] (H-KCNTATCTVQRLAHAIYQFTDKDKDNVAPPTNVGSNG[Hyp]-NH2; disulfide 2-7; N-terminus assumed), the 50% effective concentration (EC50) on hAMY3 receptor was 0.007 nM; on hAM1 receptor, greater than 5 µM. Also, the “Max ThT signal (%)” value in data set [1] is reported as 5.000%.

On to `CC[C@H](C)[C@H](NC(=O)[C@H](CCC(N)=O)NC(=O)[C@H](Cc1c[nH]cn1)NC(=O)[C@H](C)NC(=O)[C@H](CC(C)C)NC(=O)[C@H](CCCNC(N)=O)NC(=O)[C@H](CCC(N)=O)NC(=O)[C@@H](NC(=O)[C@@H](NC(=O)[C@@H]1CSSC[C@H](NC(=O)CN)C(=O)N[C@@H](CCCNC(=N)N)C(=O)N[C@@H](Cc2ccccc2)C(=O)NCC(=O)N[C@@H]([C@@H](C)O)C(=O)N1)[C@@H](C)O)C(C)C)C(=O)N[C@@H](Cc1ccc(O)cc1)C(=O)N[C@@H](CCC(N)=O)C(=O)N[C@@H](Cc1ccccc1)C(=O)N[C@H](C(=O)N[C@@H](CC(=O)O)C(=O)N[C@@H](CCCCN)C(=O)N[C@@H](CC(=O)O)C(=O)N[C@@H](CCCCN)C(=O)N[C@@H](CC(=O)O)C(=O)N[C@@H](CC(N)=O)C(=O)N[C@H](C(=O)N[C@@H](C)C(=O)N1CCC[C@H]1C(=O)N[C@@H](CCCNC(=N)N)C(=O)N[C@@H](CO)C(=O)N[C@@H](CC(N)=O)C(=O)N[C@H](C(=O)N[C@@H](CO)C(=O)N1CCC[C@H]1C(=O)N[C@@H](CCC(N)=O)C(=O)NCC(=O)N1C[C@H](O)C[C@H]1C(N)=O)[C@@H](C)CC)C(C)C)[C@@H](C)O` [compound 300] (H-GCRFGTCTVQ[Cit]LAHQIYQFTDKDKDNVAPRSNISPQG[Hyp]-NH2; disulfide 2-7; N-terminus assumed), for which the EC50 was 0.076 nM on hAMY3 receptor and greater than 5 µM at hAM1 receptor. In addition, the “Max ThT signal (%)” value in data set [1] stood at 17.850%.

With `CC[C@H](C)[C@H](NC(=O)[C@H](CCC(N)=O)NC(=O)[C@H](Cc1c[nH]cn1)NC(=O)[C@H](C)NC(=O)[C@H](CC(C)C)NC(=O)[C@H](CCCNC(N)=O)NC(=O)[C@H](CCC(N)=O)NC(=O)[C@@H](NC(=O)[C@@H](NC(=O)[C@@H]1CSSC[C@H](NC(=O)[C@@H](N)CCCCN)C(=O)N[C@@H](CC(N)=O)C(=O)N[C@@H]([C@@H](C)O)C(=O)N[C@@H](C)C(=O)N[C@@H]([C@@H](C)O)C(=O)N1)[C@@H](C)O)C(C)C)C(=O)N[C@@H](Cc1ccc(O)cc1)C(=O)N[C@@H](CCC(N)=O)C(=O)N[C@@H](Cc1ccccc1)C(=O)N[C@H](C(=O)N[C@@H](CC(=O)O)C(=O)N[C@@H](CCCCN)C(=O)N[C@@H](CC(=O)O)C(=O)N[C@@H](C)C(=O)N[C@@H](CC(=O)O)C(=O)N[C@@H](CC(N)=O)C(=O)N[C@H](C(=O)N[C@@H](C)C(=O)N1CCC[C@H]1C(=O)N1CCC[C@H]1C(=O)N[C@H](C(=O)N[C@@H](CC(N)=O)C(=O)N[C@H](C(=O)NCC(=O)N[C@@H](CO)C(=O)N[C@@H](CC(N)=O)C(=O)NCC(=O)N1C[C@H](O)C[C@H]1C(N)=O)C(C)C)[C@@H](C)O)C(C)C)[C@@H](C)O` [compound 250] (H-KCNTATCTVQ[Cit]LAHQIYQFTDKDADNVAPPTNVGSNG[Hyp]-NH2; disulfide 2-7; N-terminus assumed), the EC50 at hAMY3 receptor is 0.011 nM; at hAM1 receptor, greater than 5 µM. For the same molecule, the “Max ThT signal (%)” value in data set [1] was determined as 6.400%.
